This data set is described as follows: Pharmacokinetic study in dogs, oral dosing of tablet compositions with SNAC. It counts as in vivo, Beagle dogs. As for the experimental part:
The purpose of this example is to determine the half-life and plasma exposure in vivo of the compounds of the present invention after p.o. administration to beagle dogs, i.e. the terminal half-life and concentration of test substance that reaches circulation with time. This is done in a pharmacokinetic (PK) study, where these parameters of the compound in question are determined. By terminal half-life is generally meant the period of time it takes to halve a certain plasma concentration, measured after the initial distribution phase.
The amount of SNAC in the tablet composition was 100-300 mg, the amount of magnesium stearate in the tablet composition was 7.7 mg, and the target amount of each test substance in the tablet composition was 3-4 mg.
Male beagle dogs, 1-7 years of age and weighing 9-17 kg during the study period, were included in the study. The dogs were dosed in a fasting state. The dogs were group housed in pens (12 hours light: 12 hours dark), and fed individually and restrictedly once daily with Royal Canin Medium Adult dog food (Royal Canin Products, China Branch, or Brogaarden A/S, Denmark). The dogs were used for repeated PK studies with a suitable wash-out period between successive dosing. An appropriate acclimatization period was given prior to initiation of the first PK study. All handling, dosing, and blood sampling of the animals were performed by trained and skilled staff. Before the studies, the dogs were fasted overnight and from 0 to 4 hours after dosing. The dogs were restricted to water 1 hour before dosing until 4 hours after dosing, but otherwise had ad libitum access to water during the whole period.
The compositions were administered by a single oral dosing to the dogs in groups of 6-8 dogs. […] The mouth was then closed, and 10 mL of tap water was given by syringe or gavage to facilitate swallowing of the tablet.
One blood sample was drawn before dosing, and additional samples were drawn at predefined time points after dosing for up to 240 hours, such as up to 10 hours, to adequately cover the full plasma concentration-time absorption profile of the test substance. For each blood sample time point, approximately 0.8 mL of whole blood was collected in a 1.5 mL EDTA-coated tube, which was gently turned to mix the sample with EDTA. Blood samples were collected in EDTA buffer (8 mM) and then centrifuged at 4° C. 2000 g for 10 minutes. Plasma was pipetted into Micronic tubes on dry ice, and kept at −20° C. or lower until analysis. Blood samples were taken as appropriate, for example from a venflon in the cephalic vein in the front leg for the first 2 hours and then with syringe from the jugular vein for the rest of the time points. The first few drops were allowed to drain from the venflon to avoid heparin saline from the venflon in the sample.
All blood samples were collected into test tubes containing EDTA for stabilisation and kept on ice until centrifugation. Plasma was separated from whole blood by centrifugation and the plasma was stored at −20° C. or lower until analysis.
The plasma was analysed for test substance using LC-MS (Liquid Chromatography-Mass Spectrometry) as known to the person skilled in the art. […] RP-HPLC separation was achieved using a linear gradient of 1:1 acetonitrile/methanol in 1% aqueous formic acid using either: a Phenomenex Onyx Monolithic C18 column (50×2.0 mm) and a flow rate of 0.8 mL/min at 30° C.; or an Agilent Poroshell 120 SB-C18 column (50×2.1 mm, 2.7 μm) at a flow rate of 0.4 mL/min at 60° C. The mass spectrometer was operated in either positive ionization SIM mode or positive ionization PRM mode.
For each individual animal, a plasma concentration-time profile was analysed by a non-compartmental model in Pharsight Phoenix WinNonLin ver.

Marks after values point to notes of the source that are not given here. Starred links: 1 amine or outer side, 2 acyl side, 3 side chain; linkers in the order of their positions; H or OH if unused. Non-standard residues stand in square brackets, D forms with d. Residues, ends and D or L forms follow the SMILES beside them. Groups on a side chain read outwards from the residue. *: point of attachment. C18 diacid = O=C(O)CCCCCCCCCCCCCCCCC(=O)*; γGlu = O=C(O)[C@H](CCC(=O)[*:2])N[*:1]; εLys = N[C@@H](CCCCN[*:1])C(=O)[*:2]; AEEA = NCCOCCOCC(=O)O; Aib = CC(C)(N)C(=O)O

`CC[C@H](C)[C@H](NC(=O)[C@H](Cc1ccccc1)NC(=O)[C@H](CCC(=O)O)NC(=O)[C@H](CCCNC(=N)N)NC(=O)[C@H](C)NC(=O)[C@H](C)NC(=O)[C@H](CCC(N)=O)NC(=O)[C@H](CCCCNC(=O)[C@@H](N)CCCCNC(=O)[C@@H](N)CCCCNC(=O)CC[C@H](NC(=O)CCCCCCCCCCCCCCCCC(=O)O)C(=O)O)NC(=O)[C@H](CCC(=O)O)NC(=O)[C@H](CC(C)C)NC(=O)[C@H](CC(C)C)NC(=O)[C@@H](NC(=O)[C@H](CO)NC(=O)[C@H](Cc1ccc(O)cc1)NC(=O)[C@H](CC(=O)O)NC(=O)[C@H](CO)NC(=O)[C@@H](NC(=O)[C@H](Cc1ccccc1)NC(=O)[C@@H](NC(=O)CNC(=O)[C@H](CCC(=O)O)NC(=O)C(C)(C)NC(=O)[C@@H](N)Cc1ccc(O)cc1)[C@@H](C)O)[C@@H](C)O)[C@@H](C)CC)C(=O)N[C@@H](CCC(=O)O)C(=O)N[C@@H](Cc1c[nH]c2ccccc12)C(=O)N[C@@H](CC(C)C)C(=O)N[C@@H](CC(C)C)C(=O)N[C@@H](CCCNC(=N)N)C(=O)NCC(=O)NCC(=O)N1CCC[C@H]1C(=O)N[C@@H](CCC(=O)O)C(=O)N[C@@H](CO)C(=O)NCC(=O)N[C@@H](C)C(=O)N1CCC[C@H]1C(=O)N1CCC[C@H]1C(=O)N1CCC[C@H]1C(=O)N[C@@H](CO)C(=O)O` [Compound No. 28] (H-Y[Aib]EGTFTSDYSILLEK([εLys-εLys-γGlu-C18 diacid])QAAREFIEWLLRGGPESGAPPPS-OH): the AUC/Dose (oral tablet, SNAC 300 mg, test substance 3 mg, Beagle dogs, arithmetic mean) is reported as 18.6** kg*h/L. As for `CC[C@H](C)[C@H](NC(=O)[C@H](Cc1ccccc1)NC(=O)[C@H](CCC(=O)O)NC(=O)[C@H](CCC(N)=O)NC(=O)[C@H](C)NC(=O)[C@H](C)NC(=O)[C@H](CCC(N)=O)NC(=O)[C@H](CCCCNC(=O)[C@@H](N)CCCCNC(=O)[C@@H](N)CCCCNC(=O)CC[C@H](NC(=O)CCCCCCCCCCCCCCCCC(=O)O)C(=O)O)NC(=O)[C@H](CCC(=O)O)NC(=O)[C@H](CC(C)C)NC(=O)[C@H](CC(C)C)NC(=O)[C@@H](NC(=O)[C@H](CO)NC(=O)[C@H](Cc1ccc(O)cc1)NC(=O)[C@H](CC(=O)O)NC(=O)[C@H](CO)NC(=O)[C@@H](NC(=O)[C@H](Cc1ccccc1)NC(=O)[C@@H](NC(=O)CNC(=O)[C@H](CCC(=O)O)NC(=O)C(C)(C)NC(=O)[C@@H](N)Cc1ccc(O)cc1)[C@@H](C)O)[C@@H](C)O)[C@@H](C)CC)C(=O)N[C@@H](CCC(=O)O)C(=O)N[C@@H](Cc1c[nH]c2ccccc12)C(=O)N[C@@H](CC(C)C)C(=O)N[C@@H](CC(C)C)C(=O)N[C@@H](C)C(=O)NCC(=O)NCC(=O)N1CCC[C@H]1C(=O)N[C@@H](CO)C(=O)N[C@@H](CO)C(=O)NCC(=O)N[C@@H](C)C(=O)N1CCC[C@H]1C(=O)N1CCC[C@H]1C(=O)N1CCC[C@H]1C(=O)N[C@@H](CO)C(=O)O` [Compound No. 29] (H-Y[Aib]EGTFTSDYSILLEK([εLys-εLys-γGlu-C18 diacid])QAAQEFIEWLLAGGPSSGAPPPS-OH), the AUC/Dose (dog, in vivo, po) is on record as 16.6** kg*h/L. Where the note is “dog, in vivo, po”, `CC[C@H](C)[C@H](NC(=O)[C@H](Cc1ccccc1)NC(=O)[C@H](CCC(=O)O)NC(=O)[C@H](Cc1c[nH]cn1)NC(=O)[C@H](C)NC(=O)[C@H](C)NC(=O)[C@H](CCC(N)=O)NC(=O)[C@H](CCCCNC(=O)[C@@H](N)CCCCNC(=O)[C@@H](N)CCCCNC(=O)CC[C@H](NC(=O)CCCCCCCCCCCCCCCCC(=O)O)C(=O)O)NC(=O)[C@H](CCC(=O)O)NC(=O)[C@H](CC(C)C)NC(=O)[C@H](CC(C)C)NC(=O)[C@@H](NC(=O)[C@H](CO)NC(=O)[C@H](Cc1ccc(O)cc1)NC(=O)[C@H](CC(=O)O)NC(=O)[C@H](CO)NC(=O)[C@@H](NC(=O)[C@H](Cc1ccccc1)NC(=O)[C@@H](NC(=O)CNC(=O)[C@H](CCC(=O)O)NC(=O)C(C)(C)NC(=O)[C@@H](N)Cc1ccc(O)cc1)[C@@H](C)O)[C@@H](C)O)[C@@H](C)CC)C(=O)N[C@@H](CCC(=O)O)C(=O)N[C@@H](Cc1c[nH]c2ccccc12)C(=O)N[C@@H](CC(C)C)C(=O)N[C@@H](CC(C)C)C(=O)N[C@@H](C)C(=O)NCC(=O)NCC(=O)N1CCC[C@H]1C(=O)N[C@@H](CO)C(=O)N[C@@H](CO)C(=O)NCC(=O)N[C@@H](C)C(=O)N1CCC[C@H]1C(=O)N1CCC[C@H]1C(=O)N1CCC[C@H]1C(=O)N[C@@H](CO)C(=O)O` [Compound No. 30] (H-Y[Aib]EGTFTSDYSILLEK([εLys-εLys-γGlu-C18 diacid])QAAHEFIEWLLAGGPSSGAPPPS-OH; N-terminus assumed) showed an AUC/Dose of 6.5 kg·h/L.

On to `CC[C@H](C)[C@H](NC(=O)[C@H](Cc1ccccc1)NC(=O)[C@H](CCC(=O)O)NC(=O)[C@H](CCCNC(=N)N)NC(=O)[C@H](C)NC(=O)[C@H](C)NC(=O)[C@H](CCC(N)=O)NC(=O)[C@H](CCCCNC(=O)[C@@H](N)CCCCNC(=O)[C@@H](N)CCCCNC(=O)CC[C@H](NC(=O)CCCCCCCCCCCCCCCCC(=O)O)C(=O)O)NC(=O)[C@H](CCC(=O)O)NC(=O)[C@H](CC(C)C)NC(=O)[C@H](CC(C)C)NC(=O)[C@@H](NC(=O)[C@H](CO)NC(=O)[C@H](Cc1ccc(O)cc1)NC(=O)[C@H](CC(=O)O)NC(=O)[C@H](CO)NC(=O)[C@@H](NC(=O)[C@H](Cc1ccccc1)NC(=O)[C@@H](NC(=O)CNC(=O)[C@H](CCC(=O)O)NC(=O)C(C)(C)NC(=O)[C@@H](N)Cc1ccc(O)cc1)[C@@H](C)O)[C@@H](C)O)[C@@H](C)CC)C(=O)N[C@@H](CCC(=O)O)C(=O)N[C@@H](Cc1c[nH]c2ccccc12)C(=O)N[C@@H](CC(C)C)C(=O)N[C@@H](CC(C)C)C(=O)N[C@@H](C)C(=O)NCC(=O)NCC(=O)N1CCC[C@H]1C(=O)N[C@@H](CO)C(=O)N[C@@H](CO)C(=O)NCC(=O)N[C@@H](C)C(=O)N1CCC[C@H]1C(=O)N1CCC[C@H]1C(=O)N1CCC[C@H]1C(=O)N[C@@H](CO)C(=O)O` [Compound No. 31] (H-Y[Aib]EGTFTSDYSILLEK([εLys-εLys-γGlu-C18 diacid])QAAREFIEWLLAGGPSSGAPPPS-OH; N-terminus assumed), for which the AUC/Dose (dog, in vivo, po) is on record as 17.9** kg*h/L.

On to `CC[C@H](C)[C@H](NC(=O)[C@H](Cc1ccccc1)NC(=O)[C@H](CCC(=O)O)NC(=O)[C@H](CCCNC(=N)N)NC(=O)[C@H](C)NC(=O)[C@H](C)NC(=O)[C@H](CCC(N)=O)NC(=O)[C@H](CCCCNC(=O)COCCOCCNC(=O)COCCOCCNC(=O)CC[C@H](NC(=O)CCCCCCCCCCCCCCCCC(=O)O)C(=O)O)NC(=O)[C@H](CCC(=O)O)NC(=O)[C@H](CC(C)C)NC(=O)[C@H](CC(C)C)NC(=O)[C@@H](NC(=O)[C@H](CO)NC(=O)[C@H](Cc1ccc(O)cc1)NC(=O)[C@H](CC(=O)O)NC(=O)[C@H](CO)NC(=O)[C@@H](NC(=O)[C@H](Cc1ccccc1)NC(=O)[C@@H](NC(=O)CNC(=O)[C@H](CCC(=O)O)NC(=O)C(C)(C)NC(=O)[C@@H](N)Cc1ccc(O)cc1)[C@@H](C)O)[C@@H](C)O)[C@@H](C)CC)C(=O)N[C@@H](CCC(=O)O)C(=O)N[C@@H](Cc1c[nH]c2ccccc12)C(=O)N[C@@H](CC(C)C)C(=O)N[C@@H](CC(C)C)C(=O)N[C@@H](C)C(=O)NCC(=O)NCC(=O)N1CCC[C@H]1C(=O)N[C@@H](CO)C(=O)N[C@@H](CO)C(=O)NCC(=O)N[C@@H](C)C(=O)N1CCC[C@H]1C(=O)N1CCC[C@H]1C(=O)N1CCC[C@H]1C(=O)N[C@@H](CO)C(=O)O` [Compound No. 32] (H-Y[Aib]EGTFTSDYSILLEK([AEEA-AEEA-γGlu-C18 diacid])QAAREFIEWLLAGGPSSGAPPPS-OH; N-terminus assumed), for which the AUC/Dose (dog, in vivo, po) is recorded as 25.3* kg*h/L.
